BindingDB's records for doi:10.1074/jbc.M113.532804 (University of Wuerzburg, 2014)

Assays:
[1] = molecular target: T1, Enoyl-[acyl-carrier-protein] reductase [NADPH] FabI (Staphylococcus aureus (strain NCTC 8325 / PS 47), UniProt Q2FZQ3); assay: Inhibition Kinetics Assay; conditions: pH 7.5
T1 sequence (Q2FZQ3 whole entry): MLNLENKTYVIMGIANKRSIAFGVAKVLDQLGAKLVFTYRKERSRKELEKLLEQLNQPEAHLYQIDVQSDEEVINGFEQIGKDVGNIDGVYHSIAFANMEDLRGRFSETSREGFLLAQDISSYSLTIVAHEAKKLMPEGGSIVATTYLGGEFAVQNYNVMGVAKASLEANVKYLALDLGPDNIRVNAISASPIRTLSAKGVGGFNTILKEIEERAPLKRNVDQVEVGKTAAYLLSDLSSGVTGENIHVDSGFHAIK
Experimental: (§1) Kinetics were performed on a Cary 100 spectrophotometer (Varian) at 20 °C.

[2] = molecular target: T2, Enoyl-[acyl-carrier-protein] reductase [NADH] FabI (Escherichia coli (strain K12), UniProt P0AEK4); assay: Inhibition Kinetics Assay; conditions: pH 7.5
T2 sequence (P0AEK4 whole entry): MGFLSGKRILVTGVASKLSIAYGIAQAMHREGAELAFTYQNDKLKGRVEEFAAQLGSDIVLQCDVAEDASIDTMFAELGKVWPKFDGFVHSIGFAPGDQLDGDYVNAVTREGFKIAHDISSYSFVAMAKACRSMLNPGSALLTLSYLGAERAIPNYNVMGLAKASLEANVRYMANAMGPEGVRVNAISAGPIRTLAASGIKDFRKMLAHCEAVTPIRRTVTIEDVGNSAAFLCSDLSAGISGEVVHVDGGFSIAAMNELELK
Experimental: as §1

Cc1c(N)cccc1Cn1ccc(OCCc2cccs2)cc1=O [CG400549]
Ki [1]: 1.3 nM

CCCCCCc1cc(=O)c(Cc2ccccc2C#N)cn1C [PT159]
Ki [1]: 11 nM

CCCCCCc1cc(=O)c(Oc2ccccc2C)cn1C [PT166]
Ki [2]: 7 nM | Ki [1]: 2.7 nM

Cc1ccn(Cc2ccccc2Cl)c(=O)c1 [PT170]
Ki [1]: 229 nM

CCCCCCc1ccn(Cc2ccccc2C)c(=O)c1 [PT171]
Ki [2]: 95.7 nM | Ki [1]: 11.9 nM

CCCCCCc1ccn(Cc2ccccc2Cl)c(=O)c1 [PT172]
Ki [1]: 11 nM

CCCCCCc1ccn(Cc2cccc(N)c2C)c(=O)c1 [PT173]
Ki [2]: 203 nM | Ki [1]: 2 nM

CCCCCCc1ccn(Cc2ccccc2)c(=O)c1 [PT179]
Ki [1]: 19 nM

CCCCCCc1ccc(Oc2ccccc2)c(=O)[nH]1 [PT191]
Ki [1]: 196 nM

CCCCCc1ccn(Cc2ccccc2C#N)c(=O)c1 [PT420]
Ki [1]: 29.6 nM
